“And” between values parts separate entries of the source, which are not always exact repeats. Identical values can stand only once. Like-named read-outs stand apart in the source and are kept apart here. Each block holds one compound with its values, some of them ahead of it.
Assays:
Assay type in all cases: biochemical
[1] = molecular target: T1, bovine trypsin (Bos taurus, UniProt P00760); test: Trypsin inhibition assay (proteolytic activity on BApNA)
T1 construct: purchased Sigma-Aldrich T8003
T1 sequence (P00760 24-246): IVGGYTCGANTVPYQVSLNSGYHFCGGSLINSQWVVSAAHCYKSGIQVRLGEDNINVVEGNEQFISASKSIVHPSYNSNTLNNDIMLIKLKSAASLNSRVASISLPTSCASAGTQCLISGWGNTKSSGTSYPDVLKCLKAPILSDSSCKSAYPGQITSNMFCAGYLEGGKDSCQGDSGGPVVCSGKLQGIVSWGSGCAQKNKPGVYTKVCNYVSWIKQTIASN
Experimental: The inhibition by the benzamidine derivatives against trypsin was measured using an assay probing the enzyme proteolytic activity on the substrate Nα-Benzoyl-DL-arginine-4-nitroanilide hydrochloride (BApNA). […] 5 µl of BApNA solution (10 mM, dissolved in DMSO) were added immediately prior to the measurement. The final total volume was 100 µl per well. The measurements were performed in a Low Binding 384-well plate. The absorption was measured at 410 nm in intervals of 10 sec for 15 min at 37 °C using a Beckman Coulter’s Paradigm Detection Platform (Brea, USA). The measurements were performed in triplicate. The activity of trypsin was calculated by the hydrolysis rate of BApNA after subtraction of the background-hydrolysis rate. The curves were plotted as a function of the concentration of the inhibitor against the relative enzyme activity. Vmax was derived from the detected absorption signal for each concentration and logistic fitting was performed to obtain IC50 values using Origin 2019b (OriginLab).

[2] = molecular target: T2, MMP-9 (Homo sapiens, UniProt P14780); test: MMP-9 inhibition assay (fluorogenic peptide substrate); parameters: remaining enzyme activity (% of control): scale not given here; settings: for IC50: n.d: not detected
T2 construct: purchased Sino Biological 10327-HNAH
T2 sequence (P14780 107-707 limits assumed): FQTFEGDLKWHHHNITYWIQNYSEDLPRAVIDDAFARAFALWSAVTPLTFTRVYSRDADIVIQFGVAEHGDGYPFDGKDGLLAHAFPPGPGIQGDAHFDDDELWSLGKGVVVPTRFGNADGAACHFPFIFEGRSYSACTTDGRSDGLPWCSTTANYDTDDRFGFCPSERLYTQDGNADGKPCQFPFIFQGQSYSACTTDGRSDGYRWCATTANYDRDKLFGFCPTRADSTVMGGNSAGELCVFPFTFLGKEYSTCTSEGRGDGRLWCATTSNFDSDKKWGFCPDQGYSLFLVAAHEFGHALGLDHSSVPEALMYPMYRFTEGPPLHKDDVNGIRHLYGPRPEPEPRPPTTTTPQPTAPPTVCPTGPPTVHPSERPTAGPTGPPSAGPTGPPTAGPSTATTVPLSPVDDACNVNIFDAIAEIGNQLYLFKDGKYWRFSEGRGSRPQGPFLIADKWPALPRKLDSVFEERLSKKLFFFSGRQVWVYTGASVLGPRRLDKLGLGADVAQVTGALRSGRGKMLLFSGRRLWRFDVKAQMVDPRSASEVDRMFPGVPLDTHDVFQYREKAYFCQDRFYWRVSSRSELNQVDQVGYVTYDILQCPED
Method in brief: (§1)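 Hydrolysis of DNP-Pro-Leu-Gly-Met-Trp-Ser-Arg (25 μM final) was tracked kinetically at em 360 nm over 30 min. Enzymes, APMA-activated and at 10 nM (MMP-9) or 6.5 nM (MMP-2) final, sat 30 min at RT with inhibitor in pH 7.5 Tris buffer with CaCl2 and Brij 35 first. Logistic fitting of Vmax against concentration gave IC50, in triplicate.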

[3] = molecular target: T3, MMP-2 (Homo sapiens, UniProt P08253); test: MMP-2 inhibition assay (fluorogenic peptide substrate); settings: for IC50: n.d: not detected
T3 construct: purchased Sino Biological 10082-HNAH
T3 sequence (P08253 110-660): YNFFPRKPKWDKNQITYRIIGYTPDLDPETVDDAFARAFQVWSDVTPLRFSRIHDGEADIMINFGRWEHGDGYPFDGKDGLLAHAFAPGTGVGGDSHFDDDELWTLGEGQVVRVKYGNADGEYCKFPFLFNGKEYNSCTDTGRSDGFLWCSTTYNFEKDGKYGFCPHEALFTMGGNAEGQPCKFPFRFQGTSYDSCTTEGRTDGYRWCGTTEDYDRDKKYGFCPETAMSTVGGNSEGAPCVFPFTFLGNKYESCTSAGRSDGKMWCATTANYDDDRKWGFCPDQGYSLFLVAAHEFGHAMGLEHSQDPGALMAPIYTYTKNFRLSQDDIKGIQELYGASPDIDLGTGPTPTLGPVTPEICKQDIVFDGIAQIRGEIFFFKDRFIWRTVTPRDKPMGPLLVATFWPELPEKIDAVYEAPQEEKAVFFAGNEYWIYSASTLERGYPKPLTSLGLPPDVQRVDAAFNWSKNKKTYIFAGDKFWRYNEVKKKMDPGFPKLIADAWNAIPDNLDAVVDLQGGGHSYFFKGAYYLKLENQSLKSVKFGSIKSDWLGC
Method in brief: as §1

[4] = mean ± SE, Fig. 5e prints no unit, µM, read-out: IC50
[5] = MMP-2, concentration 1219.00 µM
[6] = mean ± SE, Fig. 5d unit inferred, µM, read-out: IC50
[7] = Figure 5d, fragment combination joined by linker, read-out: MMP9 IC50
[8] = Figure 5d, fragment combination joined by linker, read-out: MMP2 IC50

remaining activity at 0.0001024 µM ([1]; Concentration 0.1024 nM, fraction of uninhibited activity, read-out: mean (Figure 3c, dose-response, relative trypsin activity)): 108% | remaining activity at 0.000512 µM ([1]; Concentration 0.512 nM, fraction of uninhibited activity, read-out: mean (Figure 3c, dose-response, relative trypsin activity)): 96.5% | remaining activity at 0.00256 µM ([1]; Concentration 2.56 nM, fraction of uninhibited activity, read-out: mean (Figure 3c, dose-response, relative trypsin activity)): 102% | remaining activity at 0.064 µM ([1]; Concentration 64 nM, fraction of uninhibited activity, read-out: mean (Figure 3c, dose-response, relative trypsin activity)): 110% | remaining activity at 0.32 µM ([1]; Concentration 320 nM, fraction of uninhibited activity, read-out: mean (Figure 3c, dose-response, relative trypsin activity)): 101% | remaining activity at 1.6 µM ([1]; Concentration 1600 nM, fraction of uninhibited activity, read-out: mean (Figure 3c, dose-response, relative trypsin activity)): 106% | remaining activity at 8 µM ([1]; Concentration 8000 nM, fraction of uninhibited activity, read-out: mean (Figure 3c, dose-response, relative trypsin activity)): 103% | remaining activity at 40 µM ([1]; Concentration 40000 nM, fraction of uninhibited activity, read-out: mean (Figure 3c, dose-response, relative trypsin activity)): 82.5% | remaining activity at 200 µM ([1]; Concentration 200000 nM, fraction of uninhibited activity, read-out: mean (Figure 3c, dose-response, relative trypsin activity)): 44.6% | remaining activity at 1000 µM ([1]; Concentration 1000000 nM, fraction of uninhibited activity, read-out: mean (Figure 3c, dose-response, relative trypsin activity)): 12.9% | IC50 ([1]; mean ± SE, three independent measurements, n.d: not detected): 147 µM
SMILES: N=C(N)c1ccc(CN)cc1 [4-Aminomethyl benzamidine, 4-aminomethyl benzamidine, reference compound]

remaining enzyme activity (% of control) ([2]; MMP-9, concentration 0.08 µM): 97.89 | remaining enzyme activity (% of control) ([2]; MMP-9, concentration 0.39 µM): 99.26 | remaining enzyme activity (% of control) ([2]; MMP-9, concentration 1.95 µM): 97.73 | remaining enzyme activity (% of control) ([2]; MMP-9, concentration 9.75 µM): 98.89 | remaining enzyme activity (% of control) ([2]; MMP-9, concentration 48.76 µM): 84.90 | remaining enzyme activity (% of control) ([2]; MMP-9, concentration 243.80 µM): 42.77 | remaining enzyme activity (% of control) ([2]; MMP-9, concentration 1219.00 µM): 10.96 | IC50 [2, 4]: 201 ± 21.3 µM | remaining activity (%) ([3]; MMP-2, concentration 0.0156 µM): 88.17 | remaining activity (%) ([3]; MMP-2, concentration 0.08 µM): 88.67 | remaining activity (%) ([3]; MMP-2, concentration 0.39 µM): 96.33 | remaining activity (%) ([3]; MMP-2, concentration 1.95 µM): 93.57 | remaining activity (%) ([3]; MMP-2, concentration 9.75 µM): 94.74 | remaining activity (%) ([3]; MMP-2, concentration 48.76 µM): 85.76 | remaining activity (%) ([3]; MMP-2, concentration 243.80 µM): 33.24 | remaining activity (%) [3, 5]: 9.64 | IC50 [3, 6]: 186 ± 15.7 µM
SMILES: Cc1cc(=O)[nH]c(-n2nc(C)c(CCC(=O)NCCOCCOCCNC(=O)c3cncc(O)c3)c2C)n1 [693+828 Linker 10]

SMILES: Cc1cc(=O)[nH]c(-n2nc(C)c(CCC(=O)NCCNC(=O)CC(=O)/C=C/CCCCNC(=O)c3cncc(O)c3)c2C)n1 [693+828 Linker 12]
remaining activity at 0.04 µM ([2]; MMP-9, concentration 0.04 µM, read-out: Mean (MMP-9 dose-response, Supplementary fig 15)): 95.5% | remaining activity at 0.21 µM ([2]; MMP-9, concentration 0.21 µM, read-out: Mean (MMP-9 dose-response, Supplementary fig 15)): 89% | remaining activity at 1.04 µM ([2]; MMP-9, concentration 1.04 µM, read-out: Mean (MMP-9 dose-response, Supplementary fig 15)): 89.5% | remaining activity at 5.19 µM ([2]; MMP-9, concentration 5.19 µM, read-out: Mean (MMP-9 dose-response, Supplementary fig 15)): 71.7% | remaining activity at 25.96 µM ([2]; MMP-9, concentration 25.96 µM, read-out: Mean (MMP-9 dose-response, Supplementary fig 15)): 32.6% | remaining activity at 129.8 µM ([2]; MMP-9, concentration 129.80 µM, read-out: Mean (MMP-9 dose-response, Supplementary fig 15)): 0% | remaining activity at 649 µM ([2]; MMP-9, concentration 649.00 µM, read-out: Mean (MMP-9 dose-response, Supplementary fig 15)): 0% | IC50 [2, 4]: 14.8 µM and 15 µM | remaining activity at 0.00831 µM ([3]; MMP-2, concentration 0.00831 µM, read-out: Mean (MMP-2 dose-response, Supplementary fig 15)): 95.7% | remaining activity at 0.04 µM ([3]; MMP-2, concentration 0.04 µM, read-out: Mean (MMP-2 dose-response, Supplementary fig 15)): 92.8% | remaining activity at 0.21 µM ([3]; MMP-2, concentration 0.21 µM, read-out: Mean (MMP-2 dose-response, Supplementary fig 15)): 86.2% | remaining activity at 1.04 µM ([3]; MMP-2, concentration 1.04 µM, read-out: Mean (MMP-2 dose-response, Supplementary fig 15)): 77.4% | remaining activity at 5.19 µM ([3]; MMP-2, concentration 5.19 µM, read-out: Mean (MMP-2 dose-response, Supplementary fig 15)): 60.2% | remaining activity at 25.96 µM ([3]; MMP-2, concentration 25.96 µM, read-out: Mean (MMP-2 dose-response, Supplementary fig 15)): 25.3% | remaining activity at 129.8 µM ([3]; MMP-2, concentration 129.80 µM, read-out: Mean (MMP-2 dose-response, Supplementary fig 15)): 0% | remaining activity at 649 µM ([3]; MMP-2, concentration 649.00 µM, read-out: Mean (MMP-2 dose-response, Supplementary fig 15)): 0% | IC50 [3, 6]: 10 µM

remaining enzyme activity (% of control) ([2]; MMP-9, concentration 0.04 µM): 101.25 | remaining enzyme activity (% of control) ([2]; MMP-9, concentration 0.21 µM): 90.43 | remaining enzyme activity (% of control) ([2]; MMP-9, concentration 1.04 µM): 102.01 | remaining enzyme activity (% of control) ([2]; MMP-9, concentration 5.19 µM): 89.02 | remaining enzyme activity (% of control) ([2]; MMP-9, concentration 25.96 µM): 79.56 | remaining enzyme activity (% of control) ([2]; MMP-9, concentration 129.80 µM): 32.87 | remaining enzyme activity (% of control) ([2]; MMP-9, concentration 649.00 µM): 0.00 | IC50 [2, 4]: 80.5 ± 15.2 µM | remaining activity (%) ([3]; MMP-2, concentration 0.0156 µM): 100.00 | remaining activity (%) ([3]; MMP-2, concentration 0.08 µM): 92.98 | remaining activity (%) ([3]; MMP-2, concentration 0.39 µM): 98.13 | remaining activity (%) ([3]; MMP-2, concentration 1.95 µM): 86.92 | remaining activity (%) ([3]; MMP-2, concentration 9.75 µM): 82.64 | remaining activity (%) ([3]; MMP-2, concentration 48.76 µM): 53.90 | remaining activity (%) ([3]; MMP-2, concentration 243.80 µM): 16.08 | remaining activity (%) [3, 5]: 0.00 | IC50 [3, 6]: 59.9 ± 15.7 µM
SMILES: Cc1cc(=O)[nH]c(-n2nc(C)c(CCC(=O)NCCNC(=O)CSCCNC(=O)c3cncc(O)c3)c2C)n1 [693+828 Linker 24]

IC50 [2, 7]: 312 µM | IC50 [3, 8]: 204 µM
SMILES: Cc1cc(=O)[nH]c(-n2nc(C)c(CCC(=O)NCc3c[nH]nn3)c2C)n1 [693_787 1]

IC50 [2, 7]: 250 µM | IC50 [3, 8]: 169 µM
SMILES: Cc1cc(=O)[nH]c(-n2nc(C)c(CCC(=O)NCCCCCCCCNC(=O)CCC(=O)NCc3c[nH]nn3)c2C)n1 [693_787 4]

IC50 [2, 7]: 230 µM | IC50 [3, 8]: 171 µM
SMILES: Cc1cc(=O)[nH]c(-n2nc(C)c(CCC(=O)NCCOCCOCCNC(=O)CCC(=O)NCc3c[nH]nn3)c2C)n1 [693_787 10]

IC50 [2, 7]: 45.6 µM | IC50 [3, 8]: 68.4 µM
SMILES: Cc1cc(=O)[nH]c(-n2nc(C)c(CCC(=O)NCCNC(=O)CC(=O)/C=C/CCCCNC(=O)CCC(=O)NCc3c[nH]nn3)c2C)n1 [693_787 12]

Source: paper PMC10023787, “Trio-pharmacophore DNA-encoded chemical library for simultaneous selection of fragments and linkers” (Nature Communications, 2023)
